Reference: the supplement of paper PMC10307832

What follows are cell lines tested with CC(C)(C)c1nc(-c2cccc(NS(=O)(=O)c3c(F)cccc3F)c2F)c(-c2ccnc(N)n2)s1 [Dabrafenib] + CC1(C)CCC(c2ccc(Cl)cc2)=C(CN2CCN(c3ccc(C(=O)NS(=O)(=O)c4ccc(N[C@H](CCN5CCOCC5)CSc5ccccc5)c(S(=O)(=O)C(F)(F)F)c4)cc3)CC2)C1 [Navitoclax] (partner 0.5 µM) (assay: relative viability (nuclei count vs DMSO), 5 days (fraction); higher = more cells survive). Conditions: first compound 0.003 µM.
Procedure, shortened: (§1)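 Lung cancer cell lines in 1536-well plates were dosed by pin tool the day after seeding, either with one drug alone or with a fixed anchor-drug dose plus five library-drug doses (not always all listed) in √10 steps. After 5 days, cells were fixed and their nuclei stained in one step (final 0.05% Triton X-100, 1% formaldehyde, 1 ug/ml Hoechst), then counted on 4× images. Relative viability is the nuclei count in treated wells divided by that in vehicle wells. Values are medians of duplicate plates.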
Work on NCI-H3122 yielded a relative viability of 1.04.
NCI-H1915 was tested, and the relative viability was 0.777.
Cell Line NCI-H1975 has a relative viability of 1.2.
For LK-2, the relative viability was 1.09.
NCI-H2087 was tested, and the relative viability was 0.947.
NCI-H1993 gave a relative viability of 0.834.
For PC-3 [JPC-3], the relative viability was 0.85.
In the case of NCI-H2009, the relative viability is reported as 1.11.
NCI-H2347 was tested, and the relative viability was 0.536.
Work on NCI-H520 yielded a relative viability of 1.3.
LXF-289 was tested, and the relative viability was 0.95.
Cell Line LC-2-ad has a relative viability of 0.558.
With 201T the relative viability was 1.19.
In the case of NCI-H1666, the relative viability is reported as 0.929.
For NCI-H2023, the relative viability was 1.06.
HARA gave a relative viability of 1.14.
Work on SK-MES-1 yielded a relative viability of 1.22.

Same assay, conditions: first compound 0.009487 µM
EPLC-272H was tested, and the relative viability was 1.39.
NCI-H3122 was tested, and the relative viability was 1.01.
Cell Line NCI-H1915 has a relative viability of 0.768.
NCI-H1975 showed a relative viability of 1.11.
LK-2 was tested, and the relative viability was 0.985.
HCC-366 was tested, and the relative viability was 1.02.
NCI-H2087 gave a relative viability of 0.881.
Cell Line LCLC-97TM1 has a relative viability of 0.368.
Cell Line NCI-H2405 has a relative viability of 0.697.
Work on NCI-H1993 yielded a relative viability of 1.04.
PC-3 [JPC-3] showed a relative viability of 0.829.
In the case of NCI-H2009, the relative viability is reported as 1.02.
In the case of NCI-H2347, the relative viability is reported as 0.92.
NCI-H520 showed a relative viability of 1.11.
In the case of LXF-289, the relative viability is reported as 0.931.
LC-2-ad gave a relative viability of 0.425.
Cell Line 201T has a relative viability of 1.18.
With NCI-H2023 the relative viability was 1.03.
NCI-H322M gave a relative viability of 1.38.
Cell Line HARA has a relative viability of 1.15.
NCI-H1395 gave a relative viability of 1.18.
For SK-MES-1, the relative viability was 1.22.

Same assay, conditions: first compound 0.03 µM
In the case of EPLC-272H, the relative viability is reported as 0.997.
For NCI-H3122, the relative viability was 1.06.
Work on NCI-H1915 yielded a relative viability of 0.733.
With NCI-H1975 the relative viability was 0.954.
LK-2 gave a relative viability of 0.662.
In the case of HCC-366, the relative viability is reported as 0.963.
With NCI-H2087 the relative viability was 0.893.
With LCLC-97TM1 the relative viability was 0.536.
Cell Line NCI-H1993 has a relative viability of 0.902.
PC-3 [JPC-3] gave a relative viability of 0.822.
With NCI-H2009 the relative viability was 1.06.
NCI-H2347 was tested, and the relative viability was 0.733.
Cell Line NCI-H520 has a relative viability of 0.985.
Cell Line LXF-289 has a relative viability of 1.04.
Work on LC-2-ad yielded a relative viability of 0.381.
Work on 201T yielded a relative viability of 1.15.
In the case of NCI-H1666, the relative viability is reported as 1.1.
With NCI-H2023 the relative viability was 0.995.
Work on HARA yielded a relative viability of 1.07.
NCI-H1395 gave a relative viability of 1.09.
SK-MES-1 gave a relative viability of 1.2.

Same assay, conditions: first compound 0.09487 µM
Work on EPLC-272H yielded a relative viability of 0.875.
With NCI-H3122 the relative viability was 0.991.
Cell Line NCI-H1915 has a relative viability of 0.732.
NCI-H1975 showed a relative viability of 1.
LK-2 gave a relative viability of 0.938.
HCC-366 gave a relative viability of 1.05.
Cell Line NCI-H2087 has a relative viability of 0.842.
Work on NCI-H2405 yielded a relative viability of 0.734.
For NCI-H1993, the relative viability was 1.08.
PC-3 [JPC-3] was tested, and the relative viability was 0.781.
Cell Line NCI-H2009 has a relative viability of 0.909.
For NCI-H2347, the relative viability was 0.766.
For NCI-H520, the relative viability was 1.07.
LXF-289 gave a relative viability of 0.934.
With LC-2-ad the relative viability was 0.417.
In the case of 201T, the relative viability is reported as 1.15.
Work on NCI-H1666 yielded a relative viability of 0.863.
For NCI-H2023, the relative viability was 0.915.
In the case of NCI-H322M, the relative viability is reported as 1.12.
HARA gave a relative viability of 1.07.
Cell Line NCI-H1395 has a relative viability of 1.01.
With SK-MES-1 the relative viability was 1.04.

Same assay, conditions: first compound 0.3 µM
In the case of EPLC-272H, the relative viability is reported as 0.824.
For NCI-H3122, the relative viability was 1.08.
Work on NCI-H1915 yielded a relative viability of 0.746.
With NCI-H1975 the relative viability was 1.18.
For LK-2, the relative viability was 0.936.
In the case of HCC-366, the relative viability is reported as 1.11.
Cell Line NCI-H2087 has a relative viability of 0.892.
Cell Line LCLC-97TM1 has a relative viability of 0.427.
Work on NCI-H2405 yielded a relative viability of 0.73.
NCI-H1993 was tested, and the relative viability was 1.17.
PC-3 [JPC-3] gave a relative viability of 0.788.
With NCI-H2009 the relative viability was 0.841.
For NCI-H2347, the relative viability was 0.752.
Cell Line NCI-H520 has a relative viability of 0.936.
For LXF-289, the relative viability was 0.998.
LC-2-ad was tested, and the relative viability was 0.438.
With 201T the relative viability was 1.26.
NCI-H1666 gave a relative viability of 0.998.
NCI-H2023 was tested, and the relative viability was 1.05.
NCI-H322M showed a relative viability of 1.17.
Cell Line HARA has a relative viability of 1.12.
NCI-H1395 was tested, and the relative viability was 0.902.
Cell Line SK-MES-1 has a relative viability of 1.17.

The cell lines below were run with NC(=O)c1ccc(N(C(N)=O)c2c(F)cccc2F)nc1-c1ccc(F)cc1F [VX-702] + CC1(C)CCC(c2ccc(Cl)cc2)=C(CN2CCN(c3ccc(C(=O)NS(=O)(=O)c4ccc(N[C@H](CCN5CCOCC5)CSc5ccccc5)c(S(=O)(=O)C(F)(F)F)c4)cc3)CC2)C1 [Navitoclax] (partner 0.5 µM) in the same assay as above. Conditions: first compound 0.02 µM.
Procedure, shortened: as §1
EPLC-272H was tested, and the relative viability was 1.23.
NCI-H3122 gave a relative viability of 1.07.
Cell Line NCI-H1915 has a relative viability of 0.766.
NCI-H1975 was tested, and the relative viability was 1.09.
LK-2 gave a relative viability of 0.834.
For HCC-366, the relative viability was 0.971.
NCI-H2087 was tested, and the relative viability was 0.975.
Cell Line LCLC-97TM1 has a relative viability of 0.379.
For NCI-H2405, the relative viability was 0.813.
With NCI-H1993 the relative viability was 0.805.
PC-3 [JPC-3] was tested, and the relative viability was 0.756.
NCI-H2009 gave a relative viability of 1.18.
NCI-H2347 gave a relative viability of 0.887.
Cell Line NCI-H520 has a relative viability of 1.
LXF-289 showed a relative viability of 1.
Work on LC-2-ad yielded a relative viability of 0.467.
201T gave a relative viability of 1.17.
With NCI-H1666 the relative viability was 0.883.
NCI-H2023 was tested, and the relative viability was 1.02.
For NCI-H322M, the relative viability was 1.2.
HARA was tested, and the relative viability was 1.08.
NCI-H1395 showed a relative viability of 1.48.
Work on SK-MES-1 yielded a relative viability of 1.24.

Same assay, conditions: first compound 0.2 µM
EPLC-272H showed a relative viability of 1.08.
In the case of NCI-H3122, the relative viability is reported as 1.05.
NCI-H1915 showed a relative viability of 0.725.
NCI-H1975 showed a relative viability of 1.06.
For LK-2, the relative viability was 0.811.
HCC-366 showed a relative viability of 0.988.
With NCI-H2087 the relative viability was 0.838.
Work on LCLC-97TM1 yielded a relative viability of 0.458.
NCI-H2405 showed a relative viability of 0.773.
Cell Line NCI-H1993 has a relative viability of 0.874.
For PC-3 [JPC-3], the relative viability was 0.846.
For NCI-H2009, the relative viability was 1.2.
Cell Line NCI-H2347 has a relative viability of 0.712.
NCI-H520 gave a relative viability of 0.985.
In the case of LXF-289, the relative viability is reported as 0.957.
Work on LC-2-ad yielded a relative viability of 0.565.
201T gave a relative viability of 1.22.
With NCI-H1666 the relative viability was 0.884.
Work on NCI-H2023 yielded a relative viability of 1.01.
For NCI-H322M, the relative viability was 1.02.
With HARA the relative viability was 1.14.
NCI-H1395 was tested, and the relative viability was 1.05.
Cell Line SK-MES-1 has a relative viability of 1.12.

Same assay, conditions: first compound 0.6325 µM
EPLC-272H was tested, and the relative viability was 1.05.
With NCI-H3122 the relative viability was 1.04.
For NCI-H1915, the relative viability was 0.849.
With NCI-H1975 the relative viability was 1.08.
Cell Line LK-2 has a relative viability of 0.64.
In the case of HCC-366, the relative viability is reported as 1.1.
With NCI-H2087 the relative viability was 0.92.
In the case of LCLC-97TM1, the relative viability is reported as 0.344.
NCI-H2405 showed a relative viability of 0.89.
For NCI-H1993, the relative viability was 0.896.
With PC-3 [JPC-3] the relative viability was 0.844.
NCI-H2009 gave a relative viability of 1.25.
In the case of NCI-H2347, the relative viability is reported as 0.756.
With NCI-H520 the relative viability was 0.953.
Cell Line LXF-289 has a relative viability of 0.935.
Work on LC-2-ad yielded a relative viability of 0.475.
201T showed a relative viability of 1.23.
For NCI-H1666, the relative viability was 0.843.
For NCI-H2023, the relative viability was 0.89.
With NCI-H322M the relative viability was 1.19.
Cell Line HARA has a relative viability of 1.05.
Work on NCI-H1395 yielded a relative viability of 1.02.
SK-MES-1 was tested, and the relative viability was 1.22.

Same assay, conditions: first compound 2 µM
EPLC-272H showed a relative viability of 1.17.
For NCI-H3122, the relative viability was 1.02.
NCI-H1915 gave a relative viability of 0.916.
For NCI-H1975, the relative viability was 1.23.
With LK-2 the relative viability was 0.781.
Cell Line HCC-366 has a relative viability of 0.918.
NCI-H2087 showed a relative viability of 1.05.
LCLC-97TM1 showed a relative viability of 0.489.
In the case of NCI-H2405, the relative viability is reported as 1.2.
NCI-H1993 gave a relative viability of 0.835.
Cell Line PC-3 [JPC-3] has a relative viability of 0.853.
NCI-H2009 gave a relative viability of 1.47.
NCI-H2347 gave a relative viability of 0.792.
Work on NCI-H520 yielded a relative viability of 1.1.
LXF-289 showed a relative viability of 0.961.
